The text below walks through data of patent US10111874B2, “Combination therapies for treatment of cancer” (Araxes Pharma LLC, priority 2014, dated 2018).

The target in this test is T1, KRAS G12C 1-169, his-tagged protein, GDP-loaded (Homo sapiens, UniProt P01116, G12C).
T1 construct: KRAS G12C 1-169, his-tagged protein, GDP-loaded
Briefly: Biochemical assay: covalent binding to KRAS G12C analyzed by mass spectrometry. Further: test concentration or dose not given here.

The mark [1] stands for this setting: compounds 247-342, measured at 30 min.
[2] abbreviates: compounds 48-246, measured at 2 h.

Structures are written as SMILES.

T1 sequence (P01116 1-169 isoform P01116-2 G12C): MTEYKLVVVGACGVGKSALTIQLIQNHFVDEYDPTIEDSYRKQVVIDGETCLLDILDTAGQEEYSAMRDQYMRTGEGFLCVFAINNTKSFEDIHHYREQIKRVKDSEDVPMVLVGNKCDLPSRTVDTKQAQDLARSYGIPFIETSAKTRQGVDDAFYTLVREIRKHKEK

For the compound `C=CC(=O)N1CCN(c2ncnc3cc(-c4c(C)ccc5cn[nH]c45)c(Cl)cc23)CC1` [Compound I-268, 1-(4-(6-chloro-7-(6-methyl-1H-indazol-7-yl)quinazolin-4-yl)piperazin-1-yl)prop-2-en-1-one], the Binding % result under setting [1] was “+++ (+++indicates binding activity greater than 50% and up to 75%)”. For `C=CC(=O)Nc1ncc(C)c(-c2cc3ncnc(N4CCN(C(=O)C=C)CC4)c3cc2Cl)n1` [Compound I-178, N-(4-(4-(4-acryloylpiperazin-1-yl)-6-chloroquinazolin-7-yl)-5-methylpyrimidin-2-yl)acrylamide], the Binding % result under setting [2] is “+ (+indicates binding activity from 5% to 25%)”. Take `C=CC(=O)N1CCN(c2c(C#N)cnc3c(F)c(-c4ccccc4C(F)(F)F)c(Cl)cc23)CC1` [Compound I-285, 4-(4-acryloylpiperazin-1-yl)-6-chloro-8-fluoro-7-(2-(trifluoromethyl)phenyl) quinoline-3-carbonitrile]: the Binding % result under setting [1] is “+++ (+++indicates binding activity greater than 50% and up to 75%)”. With `C=CC(=O)N1CCN(c2c(C#N)cnc3c(F)c(-c4c(O)ccc5ccccc45)c(Cl)cc23)CC1` [Compound I-269, 4-(4-acryloylpiperazin-1-yl)-6-chloro-8-fluoro-7-(2-hydroxynaphthalen-1-yl)quinoline-3-carbonitrile], the Binding % result under setting [1] was “+++ (+++indicates binding activity greater than 50% and up to 75%)”. On to `C=CC(=O)N1CC(N2CCN(C(=O)[C@H](C)Nc3cc(C4CC4)c(Cl)cc3O)CC2)C1` [II-67, (S)-1-(3-(4-(2-((4-Chloro-5-cyclopropyl-2-hydroxyphenyl)amino)propanoyl)piperazin-1-yl)azetidin-1-yl)prop-2-en-1-one], for which, under “determined at 2 hrs”, the Binding % result was “++ (++indicates binding activity greater than 20%)”. Turning to `C=CC(=O)N1CCN(c2ncnc3cc(Cl)c(-c4ccc(Cl)cc4)cc23)C[C@@H]1C#N` [Compound I-58, (R)-1-acryloyl-4-(7-chloro-6-(4-chlorophenyl)quinazolin-4-yl)piperazine-2-carbonitrile], the Binding % entry under setting [2] was “+++ (+++indicates binding activity greater than 50% and up to 75%)”. Same read-out and setting: the result for `C=CC(=O)N1CCN(c2ncnc3ccccc23)CC1C#N` (stereo not drawn) [Compound I-57, 1-acryloyl-4-(quinazolin-4-yl)piperazine-2-carbontrile] reads “+ (+indicates binding activity from 5% to 25%)”; that for `C=CC(=O)N1CCN(c2ncnc3cc(-c4ccccc4C(F)(F)F)sc23)CC1` [Compound I-166, 1-(4-(6-(2-(trifluoromethyl)phenyl)thieno[3,2-d]pyrimidin-4-yl)piperazin-1-yl)prop-2-en-1-one], “+ (+indicates binding activity from 5% to 25%)”; that for `C=CC(=O)N1CCN(c2ncnc3cc(-c4cnc(N)nc4C)c(Cl)cc23)CC1` [Compound I-190, 1-(4-(7-(2-amino-4-methylpyrimidin-5-yl)-6-chloroquinazolin-4-yl)piperazin-1-yl)prop-2-en-1-one], “+ (+indicates binding activity from 5% to 25%)”. The same measure, in the same setting: the result for `C=CC(=O)N1CCN(c2ncnc3cc(-c4ccccc4CC#N)c(Cl)cc23)CC1` [Compound I-168, 2-(2-(4-(4-acryloylpiperazin-1-yl)-6-chloroquinazolin-7-yl)phenyl)acetonitrile] reads “++ (++indicates binding activity greater than 25% and up to 50%)”. For the compound `Cc1ccc2[nH]ncc2c1-c1c(Cl)cc2c(N3CCN(C(=O)/C=C/CN(C)C)CC3)nc(-c3cncs3)nc2c1F` [Compound 333, (E)-1-(4-(6-chloro-8-fluoro-7-(5-methyl-1H-indazol-4-yl)-2-(thiazol-5-yl)quinazolin-4-yl)piperazin-1-yl)-4-(dimethylamino)but-2-en-1-one], under setting [1], the Binding % entry was “+ (+indicates binding activity from 5% to 25%)”. Take `C=CC(=O)N1CCN(c2ncnc3cc(Cl)c(-c4ccc(Cl)cc4OC)cc23)CC1` [Compound I-13, 1-(4-(7-chloro-6-(4-chloro-2-methoxyphenyl)quinoazlin-4-yl)piperazin-1-yl)prop-2-en-1-one]: the Binding % entry (compounds 1-47, measured at 24 h) was “++ (++indicates binding activity greater than 25% and up to 50%)”.
